Publication PMC4466507, “Seneca Valley Virus 3C^pro Substrate Optimization Yields Efficient Substrates for Use in Peptide-Prodrug Therapy” (PLoS ONE, 2015)
“And” between values parts separate entries of the source, which are not always exact repeats. Equal values may be shown once.

Legend:
HRV 3C^pro = biological target: T1, HRV 3C^pro (Human rhinovirus 14, UniProt P03303); test: FRET substrate cleavage assay with recombinant HRV 3C^pro; assay type: biochemical
T1 construct: Recombinant HRV 3C Protease was purchased from Sigma; purchased Sigma
T1 sequence (P03303 1538-1719): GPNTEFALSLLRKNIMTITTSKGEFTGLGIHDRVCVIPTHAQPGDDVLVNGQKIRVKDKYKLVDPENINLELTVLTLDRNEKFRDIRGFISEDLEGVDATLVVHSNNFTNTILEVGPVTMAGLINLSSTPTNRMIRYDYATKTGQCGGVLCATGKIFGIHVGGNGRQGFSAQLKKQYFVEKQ
Description: (§1) Reactions were performed in PBS, pH 7.4 and 200 nM FRET substrate in a total volume of 100 μL. Substrates were incubated with 250 nM SVV-001 3C^pro at 30°C for 3 h. Human rhinovirus (HRV) control substrate was incubated with recombinant HRV 3C^pro under the same conditions. Fluorescence emissions at 475 nm and 527 nm, corresponding to CyPet and YPet respectively, were followed after excitation at 433 nm every 180 s by a Safire fluorimeter (Tecan). All experiments were performed in triplicate. FRET ratios (YPet fluorescence/CyPet fluorescence) were calculated at each timepoint. Conversion of each substrate to cleaved substrate was calculated by dividing the change in the FRET ratio at each timepoint by the total change in the FRET ratio corresponding to complete cleavage of the substrate. Using the equation from Boulware et al., conversion data was plotted vs. time (s) and fit with the equation: […] where [E] is the 3C^pro concentration (M) and t is time (s). The second order rate constant (k cat/K M) was determined by the curve fit using GraphPad Prism software. Reported values are the average k cat/K M values of 5–7 experiments. Uncertainty is expressed by standard deviation. Error bars on data points were removed for figure clarity.
Supplementary file pone.0129103.s004.tif: S4 Fig Comparison of SVV 3C^pro- L/VP4.1 Substrate Specificity to Selected Picornavirus Protease-Substrate Pairs. A. Substrates L/VP4.1 (labeled SVV), HRV, and Coxsackievirus (CAV) 2C/3A substrate (labeled CAV) with amino acid sequence MEALFQ↓GP were incubated with 250 nM SVV 3C^pro (black data points), HRV 3C^pro (blue data points), or CAV 3C^pro (red data points) for 3 hours at 30°C. CAV 3C^pro was cloned, overexpressed, and purified using the same methods described for SVV 3C^pro in the Methods section. The decrease in FRET was measured in real time using a fluorimeter and data was converted to display fraction of substrate converted to hydrolyzed substrate over time. Data points represent the average of three replicates at each time point. […]

SVV-001 3C^pro = biological target: T2, SVV-001 3C^pro (Seneca Valley virus, UniProt Q155Z9); test: FRET substrate cleavage assay with purified recombinant SVV-001 3C^pro; assay type: biochemical, Seneca Valley Virus (SVV-001); details: for cleavage by SVV-001 3C^pro (result in words): FRET fusion protein substrate 200 nM, 30°C; for cleavage by SVV-001 3C^pro (result in words) / kcat/KM: 3 h; for kcat/KM: CyPet/YPet FRET fusion protein substrate 200 nM, PBS pH 7.4, 30°C, average of 5–7 experiments, uncertainty SD, N/A where no cleavage was measurable; for Relative to WT: kcat/KM relative to endogenous L/VP4 FRET substrate
T2 construct: made in house; host or cells: E. coli BL21 AI
T2 sequence (Q155Z9 1509-1719): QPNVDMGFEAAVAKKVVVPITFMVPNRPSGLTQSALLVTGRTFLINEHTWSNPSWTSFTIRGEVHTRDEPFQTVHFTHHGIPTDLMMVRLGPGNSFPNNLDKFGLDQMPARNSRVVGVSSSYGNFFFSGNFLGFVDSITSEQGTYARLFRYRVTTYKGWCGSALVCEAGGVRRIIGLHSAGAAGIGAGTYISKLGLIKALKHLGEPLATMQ
Description: as §1

Plasma stability assay = assay type: in vitro ADME; details: pooled, 50% plasma/water, peptide 20 μM, 1 hour at 37°C; for change in fluorescence relative to plasma alone: human plasma, fluorescence read-out (ex 490 nm/em 520 nm) every 60 s, triplicate
Description: Human plasma was obtained from pooled discarded clinical samples less than 6 hrs old. Human plasma was isolated from whole blood by centrifugation, pooled, and diluted 1:1 with distilled H2O (Gibco). The L/VP4.1 and NHL fluorogenic peptides (20 μM) were incubated with plasma for 1 h at 37°C. Fluorescence emissions were obtained as described above by a DTX 880 multimode detector ([…]) every 60 s. Experiments were performed in triplicate in a 96 well flat bottom black opaque plate and the average fluorescence units were used to observe changes in fluorescence. Uncertainty is expressed by standard deviation.

[1] = biological target: T3, SVV-001 3C^pro produced during SVV-001 infection of NCI-H446 cells (Seneca Valley virus, UniProt Q155Z9); test: FRET substrate cellular assay (SVV-001 infected NCI-H446 cells); assay type: cell-based, Seneca Valley Virus (SVV-001); details: FP substrate 200 nM, NCI-H446 cells after 8 h SVV-001 infection, 3 h at 37°C
T3 construct: 3C^pro released during a lytic viral infection is the sole source of the 3C^pro; endogenous in cells; host or cells: NCI-H446 (human SCLC) cells infected with wild-type SVV-001 for 8 h
T3 sequence (Q155Z9 1508-1719): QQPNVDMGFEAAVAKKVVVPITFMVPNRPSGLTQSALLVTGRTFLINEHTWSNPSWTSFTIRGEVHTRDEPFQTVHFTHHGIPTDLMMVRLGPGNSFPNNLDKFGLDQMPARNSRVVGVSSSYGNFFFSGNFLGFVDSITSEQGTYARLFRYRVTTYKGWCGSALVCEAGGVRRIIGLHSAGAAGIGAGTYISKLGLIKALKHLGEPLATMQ
Description: (§2) All SVV-001 stocks were cultured and purified as described previously and virus titers were determined by tissue culture infective dose (TCID50). The SCLC cell line, NCI-H446 (ATCC) was cultured in RPMI 1640 media (Quality Biological) supplemented with 10% fetal bovine serum (HyClone). The cell line NCI-H446 is routinely tested and authenticated by short tandem repeat (STR) analysis by DDC Medical and was last authenticated six months before submission.
Cells (1.6 × 10^7) were plated on a 150 mm cell culture dish (Corning) and allowed to recover overnight at 37°C. Each plate was inoculated with SVV-001 at the TCID50 and infected cells were incubated at 37°C for 8 h. After aspiration of the media, cells were mechanically lifted from the plate in phenol-red free RPMI 1640 media (Gibco) and pelleted by centrifugation. […] During the substrate incubation the change in FRET was measured with a Tecan Safire fluorimeter as described above. Conversion of the L/VP4.1 substrate to cleaved substrate was calculated by dividing the change in the FRET ratio at each time point by the total change in the FRET ratio corresponding to complete cleavage of the substrate. The conversion of the NHL substrate was similarly determined by dividing the change in the FRET ratio of the NHL at each time point by the total change in the FRET ratio of the L/VP4.1 substrate corresponding to complete cleavage. […]

CAV 3C^pro = test: FRET substrate cleavage assay with CAV 3C^pro; assay type: biochemical, Coxsackie A virus (CAV); details: 250 nM CAV 3C^pro, 3 hours at 30°C
Description: Supplementary file pone.0129103.s004.tif: S4 Fig Comparison of SVV 3C^pro- L/VP4.1 Substrate Specificity to Selected Picornavirus Protease-Substrate Pairs. A. Substrates L/VP4.1 (labeled SVV), HRV, and Coxsackievirus (CAV) 2C/3A substrate (labeled CAV) with amino acid sequence MEALFQ↓GP were incubated with 250 nM SVV 3C^pro (black data points), HRV 3C^pro (blue data points), or CAV 3C^pro (red data points) for 3 hours at 30°C. CAV 3C^pro was cloned, overexpressed, and purified using the same methods described for SVV 3C^pro in the Methods section. The decrease in FRET was measured in real time using a fluorimeter and data was converted to display fraction of substrate converted to hydrolyzed substrate over time. Data points represent the average of three replicates at each time point. B. Heat map depicting relative rates of cleavage for protease-substrate pairs compared to the native protease-substrate pair. (TIF) Click here for additional data file.

[2] = biological target: T3, SVV-001 3C^pro produced during SVV-001 infection of NCI-H446 cells; test: Fluorescently quenched peptide cellular assay (SVV-001 infected NCI-H446 cells); assay type: cell-based, Seneca Valley Virus (SVV-001); details: FQ peptide 3 μM; for cleavage (increase in fluorescence) with SVV-001 infected cells / cleavage (increase in fluorescence) with uninfected cells: 3 hours at 37°C
Description: as §2
A similar cellular assay was performed as described in the previous paragraph with the exception of using the CPQ2/5-FAM L/VP4.1 and NHL fluorogenic peptides described earlier. After an 8 hour infection with SVV-001, NCI-H446 cells were removed from the cell culture dish using phenol-red free RPMI 1640 media supplemented with 0.1% ethylenediaminetetraacetic acid (EDTA, Sigma) to aid in gentle cell detachment, and pelleted via centrifugation. Pellets were resuspended in phenol-red free RPMI 1640 prior to plating in black opaque 96 well plates as above. CPQ2/5-FAM peptides, L/VP4.1 or NHL were added at a final concentration of 3 μM to plated cells and incubated for 3 hours at 37°C. Fluorescence emissions at 520 nm, corresponding to the liberated 5-FAM fluorophore peptide cleavage product was followed after excitation at 490 nm by a Synergy Neo multimode plate reader (Biotek) every 60 s. The experiment was performed in triplicate in a 96 well flat bottom black opaque plate and average fluorescence units were used to observe changes in fluorescence. Standard curves of 5-FAM fluorescence vs. concentration were generated to convert the relative fluorescence units to moles of cleaved product generated during the reaction. Initial rates of hydrolysis were calculated from data during the first 10 minutes of the reaction and averaged from 3–4 separate experiments. Uncertainty is expressed by standard deviation and shown with error bars.

[3] = FRET fusion protein substrate, 250 nM SVV-001 3C^pro
[4] = NCI-H446 cells after 8 hour SVV-001 infection

## LEVLFQGP [HRV, optimized human rhinovirus 3C^pro FP substrate (LEVLFQGP), positive control]
HRV 3C^pro; CyPet/YPet FRET fusion protein substrate 200 nM, recombinant HRV 3C^pro, PBS pH 7.4, 30°C, 3 h, average of 5–7 experiments, uncertainty SD
  kcat/KM: 5079 ± 528 M⁻¹ s⁻¹ and 5079 M⁻¹ s⁻¹
HRV 3C^pro; HRV FP substrate with HRV 3C^pro versus SVV FP substrates with SVV-001 3C^pro
  kcat/KM higher than either SVV FP substrate (L/VP4, 2B/2C): 3-4 fold

## IVYELQ↓SP [L/VP4.9, P1’ GN→SP substituted form of L/VP4 (IVYELQ↓SP) cloned between CyPET and YPET]
SVV-001 3C^pro; 250 nM SVV-001 3C^pro
  cleavage by SVV-001 3C^pro (result in words): increased turnover efficiency over L/VP4, but was inferior to L/VP4.1

## IVFELQGP [L/VP4.3, L/VP4.1 FRET substrate with P4 Y→F substitution]
SVV-001 3C^pro; 250 nM SVV-001 3C^pro
  kcat/KM: 12160 M⁻¹ s⁻¹
SVV-001 3C^pro; [3]
  cleavage less efficient than the L/VP4.1 Pro variant: 30%
SVV-001 3C^pro
  Relative to WT: 6.3

## IVYEPQGP [L/VP4.2, L/VP4.1 FRET substrate with P2 L→P substitution]
SVV-001 3C^pro; 250 nM SVV-001 3C^pro
  cleavage by SVV-001 3C^pro (result in words): not efficiently cleaved in 3 hours

## IVMELQGP [L/VP4.4, L/VP4.1 FRET substrate with P4 Y→M substitution]
SVV-001 3C^pro; 250 nM SVV-001 3C^pro
  kcat/KM: 10344 M⁻¹ s⁻¹
SVV-001 3C^pro; [3]
  cleavage less efficient than the L/VP4.1 Pro variant: 40%
SVV-001 3C^pro
  Relative to WT: 5.3

## VYELQGP [L/VP4.5, P6 truncation of L/VP4.1 FRET substrate]
SVV-001 3C^pro; 250 nM SVV-001 3C^pro
  kcat/KM: 9839 M⁻¹ s⁻¹
SVV-001 3C^pro; [3]
  decrease of turnover efficiency of cleavage from L/VP4.1: ~2 fold
SVV-001 3C^pro
  Relative to WT: 5.1

## GGSGGS [NHL, non-hydrolysable linker FP substrate (GGSGGS), negative control, reference compound]
Plasma stability assay
  change in fluorescence relative to plasma alone: no significant change in fluorescence
[1]
  loss of FRET (cleavage) with SVV-001 infected cells: did not show a loss of FRET

## IVYELQGP [L/VP4.1, L/VP4 with Q↓GP (P2’ N→P substitution), FRET fusion protein substrate]
CAV 3C^pro
  turnover by non-native 3C protease (CAV 3C^pro): no turnover
HRV 3C^pro; FRET substrate, 250 nM HRV 3C^pro, 3 hours at 30°C
  turnover by non-native 3C protease (HRV 3C^pro): no turnover
[1]
  loss of FRET (cleavage) with SVV-001 infected cells: Loss of FRET
SVV-001 3C^pro; 250 nM SVV-001 3C^pro
  kcat/KM: 17446 ± 2203 M⁻¹ s⁻¹ and 17446 M⁻¹ s⁻¹
SVV-001 3C^pro; [3]
  increase of kcat/KM relative to L/VP4: approximately 9 fold
SVV-001 3C^pro
  Relative to WT: 9.0

## YELQGP [L/VP4.6, P5/P6 truncation of L/VP4.1 FRET substrate]
SVV-001 3C^pro; 250 nM SVV-001 3C^pro
  kcat/KM: 1939 M⁻¹ s⁻¹
SVV-001 3C^pro
  Relative to WT: 1.0

## CPQ2-IVYELQGP-K(5FAM)-KK-NH2 [L/VP4.1 FQ peptide]
Plasma stability assay
  change in fluorescence relative to plasma alone: no significant change in fluorescence
Plasma stability assay; fluorescence read-out
  stability in human plasma (conclusion): stable
[2]; NCI-H446 cells after 8 hour SVV-001 infection, 37°C, first 10 minutes, averaged from 3–4 experiments, SD
  initial rate of reaction, SVV infected cells: 0.446 ± 0.0056 pmol/s
[2]; [4]
  cleavage (increase in fluorescence) with SVV-001 infected cells: significant increase in fluorescence
[2]; uninfected NCI-H446 cells, 37°C, first 10 minutes, averaged from 3–4 experiments, SD
  initial rate of reaction, uninfected cells: 0.168 ± 0.0025 pmol/s
[2]; uninfected NCI-H446 cells
  cleavage (increase in fluorescence) with uninfected cells: did not show an appreciable increase in fluorescence

## CPQ2-GGSGGS-K(5FAM)-KK-NH2 [NHL FQ peptide, non-hydrolysable linker peptide CPQ2-GGSGGS-K(5FAM)-KK-NH2, negative control, reference compound]
[2]; [4]
  cleavage (increase in fluorescence) with SVV-001 infected cells: not cleaved
[2]; uninfected NCI-H446 cells
  cleavage (increase in fluorescence) with uninfected cells: not cleaved

## KLFKMQGP [2B/2C, endogenous SVV-001 cleavage site KLFKMQGP cloned between CyPet and YPet as FRET fusion protein substrate]
SVV-001 3C^pro; 250 nM SVV-001 3C^pro
  kcat/KM: 1204 ± 146 M⁻¹ s⁻¹ and 1204 M⁻¹ s⁻¹
  cleavage by SVV-001 3C^pro (result in words): efficiently cleaved

## IVYELQGN [L/VP4, endogenous SVV-001 3C^pro cleavage site IVYELQGN cloned between CyPet and YPet as FRET fusion protein substrate]
SVV-001 3C^pro; 250 nM SVV-001 3C^pro
  kcat/KM: 1932 ± 183 M⁻¹ s⁻¹ and 1932 M⁻¹ s⁻¹
  cleavage by SVV-001 3C^pro (result in words): efficiently cleaved
